Values after ≈ are worked out from the molar mass of the structure shown. Marks after values point to notes of the source that are not given here.
Experiments:
E. coli NIHJ = assay: antibacterial activity (MIC), standard method of Japanese Society of Chemotherapy; conditions: Escherichia coli
P. vulgaris, 08601 = assay: as above; conditions: Proteus vulgaris, 08601, P. vulgaris
S. marscecens, 10100 = assay: as above
P. aeruginosa, 32104 = assay: as above; conditions: Pseudomonas aeruginosa
P. aeruginosa, 32121 = assay: as above; conditions: Pseudomonas aeruginosa
S. aureus, 209P = assay: as above; conditions: Staphylococcus aureus
S. epidermidis, 56500 = assay: as above; conditions: Staphylococcus epidermidis, 56500, S. epidermidis
E. faecalis, ATCC 19433 = assay: as above; conditions: Enterococcus faecalis, ATCC19433, E. faecalis
[1] = system: S. aureus, 87037 (LVFX-resistant MRSA); assay: as above; conditions: Staphylococcus aureus, MRSA, S. aureus, 87037 (LVFX-resistant MRSA)
[2] = system: S. pneumoniae, J24 (penicillin-intermediate resistant bacteria); assay: as above; conditions: Streptococcus pneumoniae
[3] = potential convulsant activity upon intracisternal administration, with and without 4-biphenyl acetic acid (BPAA); conditions: 5 μg/5 μL/mouse i. cist
Protocol: The potential convulsant activity upon intracisternal administration to mouse was also evaluated for the concomitant and administration with 4-biphenyl acetic acid (BPAA: an active metabolite of fenbufen) and in the absence of such concomitant administration. The evaluation was conducted by using 4 week old male Slc:ddY mice (6 animals per group) and intracisternally administering the test substance at a dose of 5 μg/5 μL/mouse (solvent, 0.5% lactic acid). Monitoring of the animals for the convulsion and death was started immediately after the administration and continued to 30 minutes after the administration. When used concomitantly with the BPAA, BPAA was suspended in 5% CMC, and 400 mg/kg was orally administered at a solution amount of 10 mL/kg, and the test substance was intracisternally administered 30 minutes after the BPAA.

hERG K+ channel = hERG K+ channel (Homo sapiens, UniProt Q12809); assay: hERG-K^+ channel blocking effect
Chain of hERG K+ channel (Q12809 whole entry): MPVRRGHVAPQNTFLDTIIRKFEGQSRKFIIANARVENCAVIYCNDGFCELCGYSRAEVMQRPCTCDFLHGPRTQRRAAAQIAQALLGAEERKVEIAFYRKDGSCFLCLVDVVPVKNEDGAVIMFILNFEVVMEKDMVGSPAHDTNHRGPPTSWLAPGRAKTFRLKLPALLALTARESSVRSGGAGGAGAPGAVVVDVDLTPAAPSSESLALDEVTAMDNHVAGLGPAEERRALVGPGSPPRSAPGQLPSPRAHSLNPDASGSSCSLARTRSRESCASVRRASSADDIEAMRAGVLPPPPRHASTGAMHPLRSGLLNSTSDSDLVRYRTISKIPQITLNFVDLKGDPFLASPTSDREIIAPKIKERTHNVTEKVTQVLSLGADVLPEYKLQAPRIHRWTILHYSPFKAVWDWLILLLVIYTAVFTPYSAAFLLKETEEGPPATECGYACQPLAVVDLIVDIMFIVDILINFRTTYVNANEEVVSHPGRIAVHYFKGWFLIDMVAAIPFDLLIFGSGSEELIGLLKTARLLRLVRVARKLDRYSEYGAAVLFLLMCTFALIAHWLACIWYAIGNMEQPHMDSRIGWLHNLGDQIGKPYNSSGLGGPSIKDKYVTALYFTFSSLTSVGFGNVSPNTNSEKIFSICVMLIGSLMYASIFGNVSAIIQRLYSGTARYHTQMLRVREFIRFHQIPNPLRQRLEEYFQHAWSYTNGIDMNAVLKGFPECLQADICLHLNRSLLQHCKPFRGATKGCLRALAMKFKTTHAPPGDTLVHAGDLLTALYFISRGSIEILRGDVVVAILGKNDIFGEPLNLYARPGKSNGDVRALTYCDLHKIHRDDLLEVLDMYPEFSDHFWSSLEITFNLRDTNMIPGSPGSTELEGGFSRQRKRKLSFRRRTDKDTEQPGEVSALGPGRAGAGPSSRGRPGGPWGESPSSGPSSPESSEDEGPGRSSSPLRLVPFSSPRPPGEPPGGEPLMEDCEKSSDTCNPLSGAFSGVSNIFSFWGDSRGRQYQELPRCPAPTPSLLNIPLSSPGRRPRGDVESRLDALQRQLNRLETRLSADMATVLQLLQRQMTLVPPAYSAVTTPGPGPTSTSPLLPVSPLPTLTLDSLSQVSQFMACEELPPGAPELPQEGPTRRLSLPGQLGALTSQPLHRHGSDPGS

Row | SMILES | melting point | MIC (E. coli NIHJ) | MIC (P. vulgaris, 08601) | MIC (S. marscecens, 10100) | MIC (P. aeruginosa, 32104) | MIC (P. aeruginosa, 32121) | MIC (S. aureus, 209P) | MIC (S. epidermidis, 56500) | MIC (E. faecalis, ATCC 19433) | MIC [1] | MIC [2] | number of dead animals ([3]; (with BPAA 400 mg/kg oral, 30 minutes before)) | number of dead animals ([3]; (without BPAA)) | inhibition at 30 µM (hERG K+ channel) | inhibition at 100 µM (hERG K+ channel) | inhibition at 300 µM (hERG K+ channel)
1 | COc1c(N2C[C@H](CF)[C@](C)(N)C2)c(F)cc2c(=O)c(C(=O)O)cn(C3CC3)c12 [Example 21, 7-[(3S,4S)-3-Amino-4-fluoromethyl-3-methylpyrrolidin-1-yl]-1-cyclopropyl-6-fluoro-8-methoxy-1,4-dihydro-4-oxoquinoline-3-carboxylic acid] | 226 to 229 °C | 0.012 µg/mL (≈ 0.0295 µM) | 0.05 µg/mL (≈ 0.123 µM) | 0.2 µg/mL (≈ 0.491 µM) | 0.78 µg/mL (≈ 1.91 µM) | 0.2 µg/mL (≈ 0.491 µM) | 0.025 µg/mL (≈ 0.0614 µM) | 0.1 µg/mL (≈ 0.245 µM) | 0.2 µg/mL (≈ 0.491 µM) | 0.78 µg/mL (≈ 1.91 µM) | 0.1 µg/mL (≈ 0.245 µM) | – | – | – | – | –
2 | Cc1c(N2CC3(CC3)[C@](C)(N)C2)ccc2c(=O)c(C(=O)O)cn(C3CC3)c12 [Example 30, 7-[(7S)-7-Amino-7-methyl-5-azaspiro[2.4]heptan-5-yl]-1-cyclopropyl-8-methyl-1,4-dihydro-4-oxoquinoline-3-carboxylic acid] | 227 to 230 °C | 0.006 µg/mL (≈ 0.0163 µM) | 0.025 µg/mL (≈ 0.068 µM) | 0.1 µg/mL (≈ 0.272 µM) | 0.2 µg/mL (≈ 0.544 µM) | 0.05 µg/mL (≈ 0.136 µM) | 0.05 µg/mL (≈ 0.136 µM) | 0.2 µg/mL (≈ 0.544 µM) | 0.39 µg/mL (≈ 1.06 µM) | 1.56 µg/mL (≈ 4.25 µM) | 0.2 µg/mL (≈ 0.544 µM) | – | – | – | – | –
3 | O=C(O)c1cn(C2CC2)c2cc(N3CCNCC3)c(F)cc2c1=O [CPFX, ciprofloxacin, reference compound] | – | ≤ 0.003 µg/mL | ≤ 0.003 µg/mL | 0.025 µg/mL (≈ 0.0754 µM) | 0.05 µg/mL (≈ 0.151 µM) | 0.025 µg/mL (≈ 0.0754 µM) | 0.1 µg/mL (≈ 0.302 µM) | 0.2 µg/mL (≈ 0.604 µM) | 0.78 µg/mL (≈ 2.35 µM) | > 6.25 µg/mL | 0.39 µg/mL (≈ 1.18 µM) | 6/6**^## (6/6**^##) | 0/6 (0/6) | – | – | –
4 | Cc1c(N2C[C@H](CF)[C@](C)(N)C2)c(F)cc2c(=O)c(C(=O)O)cn([C@@H]3C[C@@H]3F)c12 [Example 22, 7-[(3S,4S)-3-Amino-4-fluoromethyl-3-methylpyrrolidin-1-yl]-6-fluoro-1-[(1R,2S)-2-fluoro-1-cyclopropyl]-8-methyl-1,4-dihydro-4-oxoquinoline-3-carboxylic acid] | 135 to 137 °C | 0.012 µg/mL (≈ 0.0293 µM) | 0.012 µg/mL (≈ 0.0293 µM) | 0.1 µg/mL (≈ 0.244 µM) | 0.39 µg/mL (≈ 0.953 µM) | 0.1 µg/mL (≈ 0.244 µM) | 0.025 µg/mL (≈ 0.0611 µM) | 0.05 µg/mL (≈ 0.122 µM) | 0.2 µg/mL (≈ 0.489 µM) | 0.78 µg/mL (≈ 1.91 µM) | 0.1 µg/mL (≈ 0.244 µM) | – | – | -1.3 ± 10.1% | -0.6 ± 7.9% | 21.5 ± 6.9%
5 | C[C@H]1COc2c(N3CC(C)(N)C4(CC4)C3)c(F)cc3c(=O)c(C(=O)O)cn1c23 (stereo partly drawn) [Example 16, (3S)-10-(7-Amino-7-methyl-5-azaspiro[2.4]heptane-5-yl)-9-fluoro-2,3-dihydro-3-methyl-7-oxo-7H-pyrido[1,2,3-de][1,4]benzoxazine-6-carboxylic acid] | 268 to 270 °C | 0.012 µg/mL (≈ 0.031 µM) | 0.006 µg/mL (≈ 0.0155 µM) | 0.1 µg/mL (≈ 0.258 µM) | 0.1 µg/mL (≈ 0.258 µM) | 0.05 µg/mL (≈ 0.129 µM) | 0.025 µg/mL (≈ 0.0645 µM) | 0.1 µg/mL (≈ 0.258 µM) | 0.39 µg/mL (≈ 1.01 µM) | 3.13 µg/mL (≈ 8.08 µM) | 0.2 µg/mL (≈ 0.516 µM) | – | – | – | – | –
6 | C=C1CN(c2c(F)cc3c(=O)c(C(=O)O)cn([C@@H]4C[C@@H]4F)c3c2OC)C[C@@]1(C)N [Example 15, 7-[(3S)-3-Amino-3-methyl-4-methylenepyrrolidine-1-yl]-6-fluoro-1-[(1R,2S)-2-fluorocyclopropyl]-8-methoxy-1,4-dihydro-4-oxoquinoline-3-carboxylic acid] | 100 to 102 °C | 0.012 µg/mL (≈ 0.0296 µM) | 0.025 µg/mL (≈ 0.0617 µM) | 0.2 µg/mL (≈ 0.493 µM) | 0.39 µg/mL (≈ 0.962 µM) | 0.2 µg/mL (≈ 0.493 µM) | 0.05 µg/mL (≈ 0.123 µM) | 0.1 µg/mL (≈ 0.247 µM) | 0.2 µg/mL (≈ 0.493 µM) | 0.78 µg/mL (≈ 1.92 µM) | 0.1 µg/mL (≈ 0.247 µM) | – | – | – | – | –
7 | Cc1c(N2CC3(CC3)[C@](C)(N)C2)ccc2c(=O)c(C(=O)O)cn([C@@H]3C[C@@H]3F)c12 [Example 29, 7-[(7S)-7-Amino-7-methyl-5-azaspiro[2.4]heptan-5-yl]-1-[(1R,2S)-2-fluorocyclopropyl]-8-methyl-1,4-dihydro-4-oxoquinoline-3-carboxylic acid] | 157 to 159 °C | 0.05 µg/mL (≈ 0.13 µM) | 0.025 µg/mL (≈ 0.0649 µM) | 0.2 µg/mL (≈ 0.519 µM) | 0.2 µg/mL (≈ 0.519 µM) | 0.1 µg/mL (≈ 0.259 µM) | 0.05 µg/mL (≈ 0.13 µM) | 0.2 µg/mL (≈ 0.519 µM) | 0.78 µg/mL (≈ 2.02 µM) | 3.13 µg/mL (≈ 8.12 µM) | 0.39 µg/mL (≈ 1.01 µM) | – | – | – | – | –
8 | COc1c(N2CC(CF)C(C)(N)C2)c(F)cc2c(=O)c(C(=O)O)cn([C@@H]3C[C@@H]3F)c12 (single isomer, unassigned) [Example 8, 7-[(3R*,4S*)-3-Amino-4-fluoromethyl-3-methylpyrrolidin-1-yl]-6-fluoro-1-[(1R,2S)-2-fluorocyclopropyl]-8-methoxy-1,4-dihydro-4-oxoguinoline-3-carboxylic acid] | 186 to 189 °C | 0.012 µg/mL (≈ 0.0282 µM) | 0.025 µg/mL (≈ 0.0588 µM) | 0.2 µg/mL (≈ 0.47 µM) | 0.78 µg/mL (≈ 1.83 µM) | 0.2 µg/mL (≈ 0.47 µM) | 0.025 µg/mL (≈ 0.0588 µM) | 0.1 µg/mL (≈ 0.235 µM) | 0.2 µg/mL (≈ 0.47 µM) | 0.78 µg/mL (≈ 1.83 µM) | 0.1 µg/mL (≈ 0.235 µM) | – | – | 1.5 ± 1.8% | 2.1 ± 2.3% | 2.3 ± 7.3%
9 | Cc1c(N2CC(F)[C@](C)(N)C2)c(F)cc2c(=O)c(C(=O)O)cn([C@@H]3C[C@@H]3F)c12 (single isomer, unassigned) [Example 27] | 215 to 217 °C | 0.006 µg/mL (≈ 0.0152 µM) | 0.006 µg/mL (≈ 0.0152 µM) | 0.1 µg/mL (≈ 0.253 µM) | 0.39 µg/mL (≈ 0.986 µM) | 0.1 µg/mL (≈ 0.253 µM) | 0.012 µg/mL (≈ 0.0304 µM) | 0.05 µg/mL (≈ 0.126 µM) | 0.2 µg/mL (≈ 0.506 µM) | 0.39 µg/mL (≈ 0.986 µM) | 0.1 µg/mL (≈ 0.253 µM) | – | – | -1.8 ± 6.8% | 0.6 ± 8% | 8.9 ± 11%
10 | C=C1CN(c2c(F)cc3c(=O)c(C(=O)O)cn([C@@H]4C[C@@H]4F)c3c2OC)C[C@]1(C)N [Example 17, 7-[(3R)-3-Amino-3-methyl-4-methylenepyrrolidine-1-yl]-6-fluoro-1-[(1R,2S)-2-fluorocyclopropyl]-8-methoxy-1,4-dihydro-4-oxoquinoline-3-carboxylic acid] | 236 to 239 °C (dec.) | 0.006 µg/mL (≈ 0.0148 µM) | 0.012 µg/mL (≈ 0.0296 µM) | 0.1 µg/mL (≈ 0.247 µM) | 0.39 µg/mL (≈ 0.962 µM) | 0.1 µg/mL (≈ 0.247 µM) | 0.025 µg/mL (≈ 0.0617 µM) | 0.1 µg/mL (≈ 0.247 µM) | 0.2 µg/mL (≈ 0.493 µM) | 0.39 µg/mL (≈ 0.962 µM) | 0.1 µg/mL (≈ 0.247 µM) | – | – | – | – | –

Reference: US7563805B2, “Tri-, tetra-substituted-3-aminopyrrolidine derivative” (Daiichi Pharmaceutical Co., Ltd., priority 2005, dated 2009)
